Assay results: a melting point compilation (Tetko et al.; mined from patent text by program, amines drawn as free bases though some values may be those of a salt)

Row | Structure (SMILES) | melting point
1 | O=C(Nc1ccccc1NS(=O)(=O)c1ccc([N+](=O)[O-])cc1)c1ccc(F)cc1 | 265 to 266 °C
2 | O=C(c1ccc(I)cc1)c1ccc2[nH]c(=O)cc(-c3cccc(Cl)c3)c2c1 | 251 °C
3 | CC=COC1=C(O)C(CCC=CCCCCCCCCCCCCCC)OC1=O (centres undefined) | 42 to 45 °C
4 | Cc1nc2c(O)c(CCC(=O)c3ccccc3)c(C(=O)N(C)C)cc2n1C | 223 to 224 °C
5 | O=S1(=O)N=C(NC2CCCC2)Nc2cc(F)ccc21 | 295 to 298 °C
6 | CC(C)Oc1c(-c2ccc(S(C)(=O)=O)cc2)cnn(Cc2ccccc2)c1=O | 109 to 111 °C
7 | CCn1nnc(NC(=O)C2c3ccccc3Cc3ccccc32)n1 | 206 to 207 °C
8 | CC(O)c1c(NC(=O)C(C)(C)C)cccc1C(F)(F)F (centres undefined) | 172 °C
9 | CCC(=O)N1CCC(NC(=O)Nc2ccc(Cl)c(C(F)(F)F)c2)CC1 | 182 to 184 °C
10 | CC(=O)OC1CSC(Oc2ccnc(-c3ccc(F)nc3)c2)C(OC(C)=O)C1OC(C)=O (centres undefined) | 151 °C
11 | CCCCCCCCCCCCCCCCCCOC(=O)c1ccccc1I | 35 °C
12 | Cc1cnc(Cl)c(C(=O)N(CCO)Cc2cc(C(F)(F)F)cc(C(F)(F)F)c2)c1-c1ccccc1 | 146 to 148 °C
13 | CC(=O)COc1ccc2ccc(=O)oc2c1 | 168 to 170 °C
14 | CC(C)(C=NO)Cc1ccc(Cl)c(Cl)c1 | 84 °C
15 | CC12CCC(C(=O)O)=CC1=CCC1C2CCC2(C)C(C(=O)NC3C4CC5CC(C4)CC3C5)CCC12 (centres undefined) | 214 to 216 °C
16 | CS(=O)(=O)c1cc(OC[C@@H](O)CN[C@H]2CC[C@H](c3ccc(C(=O)N4Cc5ccccc5C4)cc3)CC2)ccc1O | 110 °C
17 | CC(=NNc1ccc(C2=NNC(=O)CC2)cc1)c1cccnc1 | 236 to 237 °C
18 | Oc1cc2onc(-c3ccccc3F)c2cc1Cl | 180 to 182 °C
19 | OCCOc1cc2ccccc2cc1OCCOc1ccccc1 | 119 to 120 °C
20 | CC(=O)NC(Cc1c[nH]c2ccccc12)C(=O)NCc1cc(C(F)(F)F)cc(C(F)(F)F)c1 (centres undefined) | 171 to 173 °C
21 | O=C(O)Cc1ccc(OCCNC(=O)[C@@H]2Cc3ccccc3N2S(=O)(=O)c2ccc(Oc3ccc(F)cc3)cc2)cc1 | 65 °C
22 | Cc1nc(N2CCc3ccccc3CC2)c(C#N)c(=O)n1N(C)C | 134 to 136 °C
23 | C=CCN(CC=C)c1ccc2[nH]c3cnc(-c4nc(CC)no4)nc3c2c1 | 175 to 184 °C
24 | CC(/C=C/c1ccccc1)=C\C(=O)NCCCCCC(=O)NO | 147 to 149 °C
25 | Cc1ccc(CN(Cc2ccc(C)cc2)c2nccc(-c3ccc(-c4ccc(N(c5ccccc5)c5ccccc5)cc4)cc3)n2)cc1 | 153 to 154 °C

Row | Structure (SMILES) | melting point
26 | Cc1ccc(C(=O)Cn2c3c(sc2=O)CCCC3)cc1 | 108 to 110 °C
27 | COc1cc(-c2cc3ccccc3[nH]2)cc(OC)c1OS(=O)(=O)c1ccccc1 | 150 °C
28 | Cc1c(O)cc2c(c1C)CCC2(C)C | 117 to 118 °C
29 | COc1ccc(-c2ccc3ccccc3c2C(=O)N(C)C)cc1 | 194 to 195 °C
30 | CS(=O)(=O)c1ccc(-c2cnn(CC(F)(F)F)c(=O)c2NC2CCCC2)cc1 | 134 to 139 °C
31 | CN1CCN(C2=Nc3ccccc3N3CCc4cccc2c43)CC1 | 149 to 151 °C
32 | N#Cc1ccc(Cn2c(=O)c(C#N)c(N3CCN(C(=O)c4cccs4)CC3)c3cccnc32)cc1 | 241 °C
33 | CC#CCOc1cc(-n2nnn(CCC)c2=O)c(Cl)cc1Cl | 58 to 60 °C
34 | O=C1COc2cc(NC(=O)C(=O)N3CCC(CCc4ccccc4)CC3)ccc2N1 | 128 to 132 °C
35 | O=c1[nH]cncc1Cc1cccnc1 | 145 to 148 °C
36 | O=C(CCC(=O)[C@H](Cc1ccccc1)NC(=O)c1ccccc1)N[C@@H](Cc1c[nH]c2ccccc12)C(=O)O | 171 to 173 °C
37 | CC(=O)Oc1ccc(C(CC(=O)O)CC(=O)OCC(=O)C2CCC3C4CCC5=CC(=O)CCC5(C)C4C4CC23C(O)O4)cc1 (centres undefined) | 145 to 160 °C
38 | O=c1[nH]cccc1Cc1ccccc1 | 158 to 160 °C
39 | CN1Cn2cc(CO)cc2-c2ccccc21 | 74 to 76 °C
40 | Nc1cccc(Br)c1-c1ncc[nH]1 | 164 to 165 °C
41 | COCc1cccc2sc(C(=O)O)cc12 | 212 to 214 °C
42 | COc1cc(Nc2nc3cccc(-c4ccc(C)c(N)c4)c3o2)cc(OC)c1OC | 188 to 190 °C
43 | CC(C)(C)c1ccc(Cn2cnc3c(-c4ccco4)ncnc32)cc1 | 185 to 187 °C
44 | CSCc1ccc(C(=O)c2ccc(Cl)cc2)cc1 | 59 to 61 °C
45 | CCC1N=C(c2ccccc2Cl)c2cc(CC(=O)O)sc2-n2c(C)nnc21 (centres undefined) | 170 to 180 °C
46 | Cc1nc2ccccn2c1Cc1ccc(C(=O)O)cc1 | 217 °C
47 | CCCCNc1nc(N2CC3CCC(CC3)C2)nc(N2CC3CCC(CC3)C2)n1 | 101 to 103 °C
48 | O=C(c1ccc(N2CCOCC2)cc1)c1ccc([N+](=O)[O-])cc1 | 173 to 175 °C
49 | CCn1nc(C(=O)NC2CN(C)CCN(Cc3ccccc3)C2)c2ccccc21 (centres undefined) | 135 to 137 °C
50 | CS(=O)(=O)CC(=O)NC(=O)N1CC1C#N (centres undefined) | 126 to 128 °C

Row | Structure (SMILES) | melting point
51 | CCN(CC)c1ccc2cc(C(=O)NN)oc2c1 | 127 to 129 °C
52 | CCCCOC(=O)c1ccc(OCCCC)c(C(C)=O)c1 | 39 to 40 °C
53 | COc1cccc([C@H]2O[C@H](CC(=O)Nc3cc(CCC(=O)O)ccc3OCCCc3ccccc3)C(=O)N(CC(C)(C)CO)c3ccc(Cl)cc32)c1OC | 162 to 165 °C
54 | COc1nc(NC(=O)NS(=O)(=O)c2cccc3c2CCCC3)nc(OC)n1 | 171 to 173 °C
55 | CS(=O)(=O)c1cccc(NC(=O)c2cnn3ccc(-c4ccc(Cl)cc4)nc23)c1 | 258 to 260 °C
56 | Cc1ccc(Nc2nc(Cl)nc3ccccc23)cc1 | 198 to 199 °C
57 | COc1ccccc1O[C@@H]1CN(Cc2ccccc2)C[C@H]1O (relative stereo) | 115 to 117 °C
58 | COc1ccc(NC(=O)c2coc(Br)c2)cc1N1CCN(C)CC1 | 185 to 187 °C
59 | COc1ccc(-c2ccccc2)cc1OC1CCCC1 | 62 to 64 °C
60 | O=Cc1cc(C2CC2)nn1Cc1ccc(C(F)(F)F)cc1Cl | 94 to 96 °C
61 | CCOC(=O)C(=O)Nc1ccc2ccccc2c1[N+](=O)[O-] | 139 to 140 °C
62 | Oc1nc(NCc2ccc(F)cc2)nc(Nc2cccc(C(F)(F)F)c2)n1 | 266 to 268 °C
63 | CCOC(=O)c1cn(-c2ccc(F)cn2)c2nc(Cl)c(F)cc2c1=O | 230 °C
64 | CCCCCCCCCCCCCCOc1ccccc1NS(=O)(=O)c1ccc2c(N=Nc3ccc(OC)cc3)c(O)ccc2c1 | 118 to 121 °C
65 | CNC(=O)COC(=O)N1CCN(CCCc2cccc(-c3cccc(Cl)c3)c2)CC1 | 82 to 85 °C
66 | CCCN(CCC)C1CCc2c(ccc3[nH]cc(C(C)=O)c23)C1 (centres undefined) | 196 to 197 °C
67 | C=CCn1c(=O)c2[nH]c(C34CC5CC(CC3C5)C4)nc2n(CCC)c1=O | 191 to 192 °C
68 | COC(=O)Cc1ccc(OCCNC(=O)C2Cc3ccccc3N2S(=O)(=O)c2ccc(-c3cc(C(F)(F)F)ccc3Cl)cc2)c(F)c1 (centres undefined) | 56 to 62 °C
69 | ClCCCn1c(Cc2ccccc2)nc2ccccc21 | 112 °C
70 | CCCC[C@H]1C(=O)CC[C@@]2(C)CC[C@@H]3C[C@]12OC3(C)C | 64 to 66 °C
71 | Cc1ccc(NCc2ccc(N(C)C)cc2)cc1C | 73 to 75 °C
72 | COc1cc(OC)c(-c2cn[nH]c2)cc1C=CC(=O)c1ccc(C(=O)O)cc1 | > 250 °C
73 | Nc1cc(C(=O)O)cc(S(N)(=O)=O)c1Nc1ccc2ccccc2c1 | 245 °C
74 | CCC1=C(C)CN(C(=O)NC2COc3cc(OC)ccc3C2)C1=O (centres undefined) | 118 to 119 °C
75 | CN(C)C(=O)c1ccc([N+](=O)[O-])cc1S(=O)(=O)NC(C)(C)C | 138 to 141 °C

Row | Structure (SMILES) | melting point
76 | CCOC(=O)C(Cc1ccc(OCCNC(=O)c2ccc(-c3ccccc3)cc2)cc1)Oc1ccccc1 (centres undefined) | 103 to 104 °C
77 | C=C=COc1ccccc1S(=O)(=O)NC(=O)Nc1nc(C)nc(OC)n1 | 150 to 151 °C
78 | O=[N+]([O-])c1cnn2c(-c3ccc(C(F)(F)F)cc3)ccnc12 | 191 to 193 °C
79 | CSc1sc(C(N)=O)c2c1-c1[nH]ncc1CC2 | 210 to 211 °C
80 | CCn1c(-c2c(Cl)cccc2Cl)nc(-c2ccnc(OC)c2)c1-c1ccc(Cl)cc1 | 138 to 140 °C
81 | O=C(CCc1ccc(NC2=NCCN2)cc1)c1ccc(N2CCOCC2)cc1F | 168 to 171 °C
82 | COc1ccc2c(c1)C1(CCCCc3ccccc31)NC2=O (centres undefined) | 189 to 190 °C
83 | Nc1nn(-c2ccccc2)c(N)c1CN1CCN(c2cccc3c2OCCO3)CC1 | 84 to 87 °C
84 | CC(C)OC(=O)C(C(=O)O)=C1SCCS1 | 104 to 106 °C
85 | COc1ccc(-c2[nH]c(-c3ccc(NCCC(C)C)cc3)nc2C(=O)Nc2nccs2)cc1 | 235 to 239 °C
86 | CCOC(=O)C(C)Oc1cc(C(=O)O)c(O)c2ccccc12 (centres undefined) | 75 °C
87 | CN1C(C)(C)CC(O)CC1(C)C | 70 to 71 °C
88 | C=CC[C@H]1CCC[C@H](N2C(=O)c3ccccc3C2=O)C(=O)N1CC(=O)OC | 107 to 109 °C
89 | CCN(CC)CCCC(=O)c1ccc2c(c1)Cc1cc(C(=O)CCCN(CC)CC)ccc1O2 | 63 to 65 °C
90 | CON(C)C(=O)Nc1c(C(=O)c2occc2CO)[nH]c2cc(Cl)ccc12 | 221 to 222 °C
91 | CC(=O)Nc1ccc(N(c2ccccc2)C2(c3ccc(N(C)C)cc3)OC(=O)c3ccccc32)cc1 (centres undefined) | 182 to 184 °C
92 | O=C1NCC(c2ccc(Cl)cc2)C1c1ccccc1 (centres undefined) | 130 to 135 °C
93 | NCc1ccc(O)cc1 | 104 °C
94 | COc1cc2c3ccc(OC)c(OC)c3n(Cc3ccccc3)c2cc1OC | 174 to 175 °C
95 | Cc1c[nH]c2c(CCC#N)cccc12 | 146 to 148 °C
96 | CC1(C)SCC(CO)S1 (centres undefined) | 45 to 50 °C
97 | O=C(O)c1cc(=O)c2cc3c(=O)cc(C(=O)O)[nH]c3c(Cl)c2[nH]1 | > 310 °C
98 | CCOCc1nc2c(N)nc3cc(N4CCN(CC)C4=O)ccc3c2n1CC(C)(C)O | 210 to 212 °C
99 | CC(=O)c1ccc2c(c1)Cc1cccnc1O2 | 142 to 144 °C
